Measurements from the supplement of paper PMC11451515.

System: NOMO1
Test: cell viability relative to DMSO control; higher = less cytotoxic
Details: 48 h
How it was run: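 Library compounds in DMSO were pin-dosed into 1536-well plates (5 μl) holding NOMO1 or SEM (500 cells/well) or P12-Ichikawa (1000 cells/well) leukemia cells, across an 11-point threefold series of 47 μM to 0.79 nM. Each cell line had been adapted for at least four passages in each medium. CellTiter-Glo One luminescence was read after 48 h at 37°C. Viability is the per-plate percentage relative to DMSO wells, with cell-free wells as background.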

[1] = HPLM + 10% dialyzed FBS, 0.000781 µM
[2] = HPLM + 10% dialyzed FBS, 0.00234 µM
[3] = HPLM + 10% dialyzed FBS, 0.00702 µM
[4] = HPLM + 10% dialyzed FBS, 0.0211 µM
[5] = HPLM + 10% dialyzed FBS, 0.0632 µM
[6] = HPLM + 10% dialyzed FBS, 0.19 µM
[7] = HPLM + 10% dialyzed FBS, 0.569 µM
[8] = HPLM + 10% dialyzed FBS, 1.71 µM
[9] = HPLM + 10% dialyzed FBS, 5.12 µM
[10] = HPLM + 10% dialyzed FBS, 15.4 µM
[11] = HPLM + 10% dialyzed FBS, 46.1 µM
[12] = RPMI 5 mM glucose + 10% FBS, 0.000781 µM
[13] = RPMI 5 mM glucose + 10% FBS, 0.00234 µM
[14] = RPMI 5 mM glucose + 10% FBS, 0.00702 µM
[15] = RPMI 5 mM glucose + 10% FBS, 0.0211 µM
[16] = RPMI 5 mM glucose + 10% FBS, 0.0632 µM
[17] = RPMI 5 mM glucose + 10% FBS, 0.19 µM
[18] = RPMI 5 mM glucose + 10% FBS, 0.569 µM
[19] = RPMI 5 mM glucose + 10% FBS, 1.71 µM
[20] = RPMI 5 mM glucose + 10% FBS, 5.12 µM
[21] = RPMI 5 mM glucose + 10% FBS, 15.4 µM
[22] = RPMI 5 mM glucose + 10% FBS, 46.1 µM
[23] = RPMI 5 mM glucose + 10% dialyzed FBS, 0.000781 µM
[24] = RPMI 5 mM glucose + 10% dialyzed FBS, 0.00234 µM
[25] = RPMI 5 mM glucose + 10% dialyzed FBS, 0.00702 µM
[26] = RPMI 5 mM glucose + 10% dialyzed FBS, 0.0211 µM
[27] = RPMI 5 mM glucose + 10% dialyzed FBS, 0.0632 µM
[28] = RPMI 5 mM glucose + 10% dialyzed FBS, 0.19 µM
[29] = RPMI 5 mM glucose + 10% dialyzed FBS, 0.569 µM
[30] = RPMI 5 mM glucose + 10% dialyzed FBS, 1.71 µM
[31] = RPMI 5 mM glucose + 10% dialyzed FBS, 5.12 µM
[32] = RPMI 5 mM glucose + 10% dialyzed FBS, 15.4 µM
[33] = RPMI 5 mM glucose + 10% dialyzed FBS, 46.1 µM

## NCCCCCC(=O)O
[1]
  cell viability: 97.6%
[2]
  cell viability: 95.2%
[3]
  cell viability: 104%
[4]
  cell viability: 88.4%
[5]
  cell viability: 107%
[6]
  cell viability: 119%
[7]
  cell viability: 110%
[8]
  cell viability: 110%
[9]
  cell viability: 96.3%
[10]
  cell viability: 97%
[11]
  cell viability: 99.1%
[12]
  cell viability: 91.2%
[13]
  cell viability: 94.7%
[14]
  cell viability: 108%
[15]
  cell viability: 94.2%
[16]
  cell viability: 102%
[17]
  cell viability: 107%
[18]
  cell viability: 86.4%
[19]
  cell viability: 92.5%
[20]
  cell viability: 97.1%
[21]
  cell viability: 88.2%
[22]
  cell viability: 95.9%
[23]
  cell viability: 80.4%
[24]
  cell viability: 92.8%
[25]
  cell viability: 107%
[26]
  cell viability: 93.4%
[27]
  cell viability: 97.3%
[28]
  cell viability: 103%
[29]
  cell viability: 92.7%
[30]
  cell viability: 87.8%
[31]
  cell viability: 93.9%
[32]
  cell viability: 85.6%
[33]
  cell viability: 96.4%

## COc1cc(Nc2ncc(F)c(Nc3ccc4c(n3)N(COP(=O)(O)O)C(=O)C(C)(C)O4)n2)cc(OC)c1OC
[1]
  cell viability: 93.5%
[2]
  cell viability: 94.8%
[3]
  cell viability: 101%
[4]
  cell viability: 97.2%
[5]
  cell viability: 122%
[6]
  cell viability: 106%
[7]
  cell viability: 87.6%
[8]
  cell viability: 99.5%
[9]
  cell viability: 116%
[10]
  cell viability: 93.5%
[11]
  cell viability: 91.1%
[12]
  cell viability: 80.8%
[13]
  cell viability: 90.2%
[14]
  cell viability: 94.1%
[15]
  cell viability: 100%
[16]
  cell viability: 103%
[17]
  cell viability: 98.6%
[18]
  cell viability: 95.6%
[19]
  cell viability: 94.4%
[20]
  cell viability: 94.1%
[21]
  cell viability: 94.2%
[22]
  cell viability: 92.6%
[23]
  cell viability: 101%
[24]
  cell viability: 89%
[25]
  cell viability: 90.8%
[26]
  cell viability: 80.2%
[27]
  cell viability: 89.6%
[28]
  cell viability: 102%
[29]
  cell viability: 88.5%
[30]
  cell viability: 86.6%
[31]
  cell viability: 94.6%
[32]
  cell viability: 89.4%
[33]
  cell viability: 99.1%

## C=CCc1cc(OC)c(O)c(C(=O)NCCO)c1
[1]
  cell viability: 98.4%
[2]
  cell viability: 113%
[3]
  cell viability: 96%
[4]
  cell viability: 105%
[5]
  cell viability: 105%
[6]
  cell viability: 113%
[7]
  cell viability: 107%
[8]
  cell viability: 106%
[9]
  cell viability: 85.7%
[10]
  cell viability: 81.4%
[11]
  cell viability: 74.2%
[12]
  cell viability: 95.3%
[13]
  cell viability: 112%
[14]
  cell viability: 103%
[15]
  cell viability: 96.1%
[16]
  cell viability: 101%
[17]
  cell viability: 101%
[18]
  cell viability: 96.1%
[19]
  cell viability: 106%
[20]
  cell viability: 93.4%
[21]
  cell viability: 101%
[22]
  cell viability: 87.1%
[23]
  cell viability: 98.5%
[24]
  cell viability: 99.5%
[25]
  cell viability: 104%
[26]
  cell viability: 106%
[27]
  cell viability: 109%
[28]
  cell viability: 98.6%
[29]
  cell viability: 89.7%
[30]
  cell viability: 96.7%
[31]
  cell viability: 87.7%
[32]
  cell viability: 84%
[33]
  cell viability: 79.5%

## CCN1\C=C(C(O)=O)/C(=O)C2=C1C=C(N3CCN(C)CC3)C(=C2)F
[12]
  cell viability: 97.7%
[13]
  cell viability: 104%
[14]
  cell viability: 106%
[15]
  cell viability: 108%
[16]
  cell viability: 106%
[17]
  cell viability: 113%
[18]
  cell viability: 107%
[19]
  cell viability: 104%
[20]
  cell viability: 82%
[21]
  cell viability: 71%
[22]
  cell viability: 51.9%
[23]
  cell viability: 123%
[24]
  cell viability: 112%
[25]
  cell viability: 112%
[26]
  cell viability: 154%
[27]
  cell viability: 157%
[28]
  cell viability: 77%
[29]
  cell viability: 71.9%
[30]
  cell viability: 47.7%
[31]
  cell viability: 57.6%
[32]
  cell viability: 58.5%
[33]
  cell viability: 32.6%

## C[C@H](NC(=O)Cc1cc(F)cc(F)c1)C(=O)N[C@@H]1C(=O)N(C)c2ccccc2-c2ccccc21
[1]
  cell viability: 99%
[2]
  cell viability: 107%
[3]
  cell viability: 122%
[4]
  cell viability: 126%
[5]
  cell viability: 121%
[6]
  cell viability: 123%
[7]
  cell viability: 96.2%
[8]
  cell viability: 118%
[9]
  cell viability: 55.6%
[10]
  cell viability: 9.2%
[11]
  cell viability: 6.63%
[12]
  cell viability: 107%
[13]
  cell viability: 106%
[14]
  cell viability: 115%
[15]
  cell viability: 110%
[16]
  cell viability: 120%
[17]
  cell viability: 112%
[18]
  cell viability: 116%
[19]
  cell viability: 121%
[20]
  cell viability: 109%
[21]
  cell viability: 27.3%
[22]
  cell viability: 8.18%
[23]
  cell viability: 101%
[24]
  cell viability: 109%
[25]
  cell viability: 121%
[26]
  cell viability: 120%
[27]
  cell viability: 124%
[28]
  cell viability: 117%
[29]
  cell viability: 125%
[30]
  cell viability: 114%
[31]
  cell viability: 125%
[32]
  cell viability: 63.6%
[33]
  cell viability: 13.8%

## O=C(O)c1ccc(-c2c[nH]c3ncc(-c4ccccc4)cc23)cc1C1CCCC1
[1]
  cell viability: 114%
[2]
  cell viability: 120%
[3]
  cell viability: 121%
[4]
  cell viability: 130%
[5]
  cell viability: 134%
[6]
  cell viability: 134%
[7]
  cell viability: 131%
[8]
  cell viability: 138%
[9]
  cell viability: 126%
[10]
  cell viability: 134%
[11]
  cell viability: 110%
[12]
  cell viability: 118%
[13]
  cell viability: 108%
[14]
  cell viability: 131%
[15]
  cell viability: 123%
[16]
  cell viability: 127%
[17]
  cell viability: 123%
[18]
  cell viability: 130%
[19]
  cell viability: 132%
[20]
  cell viability: 113%
[21]
  cell viability: 115%
[22]
  cell viability: 117%
[23]
  cell viability: 108%
[24]
  cell viability: 127%
[25]
  cell viability: 112%
[26]
  cell viability: 133%
[27]
  cell viability: 137%
[28]
  cell viability: 126%
[29]
  cell viability: 125%
[30]
  cell viability: 132%
[31]
  cell viability: 120%
[32]
  cell viability: 105%
[33]
  cell viability: 119%

## O=C([O-])[C@H](CC(=O)N1C[C@H]2CCCC[C@H]2C1)Cc1ccccc1
[1]
  cell viability: 116%
[2]
  cell viability: 120%
[3]
  cell viability: 135%
[4]
  cell viability: 133%
[5]
  cell viability: 138%
[6]
  cell viability: 123%
[7]
  cell viability: 128%
[8]
  cell viability: 145%
[9]
  cell viability: 134%
[10]
  cell viability: 156%
[11]
  cell viability: 122%

## O=[S+]([O-])(CCSSCC[S+](=O)([O-])[O][Na])[O][Na]
[1]
  cell viability: 110%
[2]
  cell viability: 104%
[3]
  cell viability: 132%
[4]
  cell viability: 124%
[5]
  cell viability: 120%
[6]
  cell viability: 112%
[7]
  cell viability: 133%
[8]
  cell viability: 125%
[9]
  cell viability: 135%
[10]
  cell viability: 129%
[11]
  cell viability: 141%
[12]
  cell viability: 107%
[13]
  cell viability: 115%
[14]
  cell viability: 125%
[15]
  cell viability: 119%
[16]
  cell viability: 127%
[17]
  cell viability: 123%
[18]
  cell viability: 125%
[19]
  cell viability: 129%
[20]
  cell viability: 147%
[21]
  cell viability: 130%
[22]
  cell viability: 142%
[23]
  cell viability: 107%
[24]
  cell viability: 112%
[25]
  cell viability: 126%
[26]
  cell viability: 130%
[27]
  cell viability: 121%
[28]
  cell viability: 122%
[29]
  cell viability: 125%
[30]
  cell viability: 139%
[31]
  cell viability: 134%
[32]
  cell viability: 144%
[33]
  cell viability: 127%
